Data: patent US8084484B2, “Vanilloid receptor ligands, pharmaceutical compositions containing them, process for making them, and use thereof for treating pain and other conditions” (Gruenenthal GmbH, priority 2007, dated 2011)

Key:
[1] = target: VR1/TRPV1 receptor (Homo sapiens, UniProt Q8NER1); assay: Inhibition of human VR1/TRPV1 following pH-stimulus; type: cell-based; settings: ne = no effect, no response observed
[2] = target: T1, vanilloid receptor (VR1), human VR1 gene (Homo sapiens, UniProt Q8NER1); assay: FLIPR Ca2+ influx assay on CHO K1 cells transfected with the VR1 gene, capsaicin stimulus (Pharmacological method II); type: cell-based; settings: human, Ki by Cheng-Prusoff, ne = no effect, no response observed
T1 construct: expressed in transfected cells; host or cells: CHO K1 cells (ECACC), stably transfected
T1 sequence (Q8NER1 whole entry): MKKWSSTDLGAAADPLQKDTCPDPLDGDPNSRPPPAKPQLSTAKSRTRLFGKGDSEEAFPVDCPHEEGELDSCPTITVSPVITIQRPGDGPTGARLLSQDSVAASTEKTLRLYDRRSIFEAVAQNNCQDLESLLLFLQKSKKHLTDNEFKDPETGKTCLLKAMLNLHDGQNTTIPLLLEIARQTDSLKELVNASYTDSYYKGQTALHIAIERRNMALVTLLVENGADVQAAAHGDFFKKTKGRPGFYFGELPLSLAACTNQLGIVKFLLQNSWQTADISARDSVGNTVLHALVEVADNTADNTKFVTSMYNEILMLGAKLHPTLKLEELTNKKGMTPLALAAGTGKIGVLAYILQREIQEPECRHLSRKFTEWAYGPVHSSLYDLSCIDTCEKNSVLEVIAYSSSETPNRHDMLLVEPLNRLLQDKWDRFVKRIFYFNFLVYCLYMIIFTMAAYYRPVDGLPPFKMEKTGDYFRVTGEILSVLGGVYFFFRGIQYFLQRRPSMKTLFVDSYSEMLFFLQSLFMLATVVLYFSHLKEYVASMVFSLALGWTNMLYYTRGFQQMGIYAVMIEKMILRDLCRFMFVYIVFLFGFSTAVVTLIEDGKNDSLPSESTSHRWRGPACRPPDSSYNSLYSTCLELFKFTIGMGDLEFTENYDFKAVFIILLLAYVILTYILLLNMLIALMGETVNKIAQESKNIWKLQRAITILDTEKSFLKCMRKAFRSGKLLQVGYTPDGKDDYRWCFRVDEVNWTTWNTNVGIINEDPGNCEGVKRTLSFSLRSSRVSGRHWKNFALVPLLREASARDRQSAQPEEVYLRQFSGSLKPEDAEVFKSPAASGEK
Experimental: In addition, compounds according to the invention of the general formulae I, Ia, Ib, Ic, and Id, may be preferred which in the FLIPR assay with CHO K1 cells, which have been transfected with the human VR1 gene, in a concentration of less than 2000 nM, preferably of less than 1000 nM, particularly preferably of less than 300 nM, very particularly preferably of less than 100 nM, still more preferably of less than 75 nM, further preferably of less than 50 nM and most preferably of less than 10 nM, bring about a 50 percent displacement of capsaicin, which is present in a concentration of 100 nM. In this FLIPR assay, the influx of Ca^2+ is quantified with the assistance of a Ca^2+-sensitive dye (type Fluo-4, Molecular Probes Europe BV, Leiden, Netherlands) in a Fluorescent Imaging Plate Reader (FLIPR, Molecular Devices, Sunnyvale, USA) as described below.
II. Functional Investigations on Vanilloid Receptor (VR1)
The agonistic or antagonistic action of the substances to be investigated on the vanilloid receptor (VR1) may also be determined with the following assay. According to this assay, the influx of Ca^2+ through the channel is quantified with the assistance of a Ca^2+-sensitive dye (type Fluo-4, Molecular Probes Europe BV, Leiden, Netherlands) in a Fluorescent Imaging Plate Reader (FLIPR, Molecular Devices, Sunnyvale, USA).
Chinese hamster ovary cells (CHO K1 cells, European Collection of Cell Cultures (ECACC), Great Britain) are stably transfected with the VR1 gene. For functional investigations, these cells are plated out onto poly-D-lysine-coated, black 96-hole plates with a clear base (BD Biosciences, Heidelberg, Germany) at a density of 25,000 cells/hole. The cells are incubated overnight at 37° C. and 5% CO2 in a culture medium (Ham's Nutrient Mixture F12, 10 vol. % FCS (foetal calf serum), 18 μg/mL L-proline). On the following day, the cells are incubated with Fluo-4 (Fluo-4 2 μM, Pluronic F127 0.01 vol. %, Molecular Probes in HBSS (Hank's buffered saline solution), Gibco Invitrogen GmbH, Karlsruhe, Germany) for 30 minutes at 37° C. The plates are then washed 3 times with HBSS buffer and, after a further 15 minutes' incubation at room temperature, used for Ca^2+ measurement in the FLIPR. Ca^2+-dependent fluorescence is here measured before and after the addition of the substances to be investigated (wavelength λex=488 nm, λem=540 nm).
Quantification proceeds by measuring the highest fluorescence intensity (FC, fluorescence counts) over time.
The FLIPR protocol consists of 2 additions of substance. The substances to be tested (10 μM) are firstly pipetted onto the cells and Ca^2+ influx is compared with the control (capsaicin 10 μM) (% activation relative to the Ca^2+ signal after addition of 10 μM of capsaicin). After 5 minutes' incubation, 100 nM of capsaicin are added and the influx of Ca^2+ is likewise determined.
The percentage inhibition in comparison with the maximum achievable inhibition with 10 μM capsaicin is calculated.
On the basis of the percentage displacement by different concentrations of the compounds to be tested of the general formula I, IC50 inhibition concentrations which bring about 50% displacement of capsaicin were calculated. Ki values for the test substances were obtained by conversion using the Cheng-Prusoff equation (Cheng, Prusoff; Biochem. Pharmacol. 22, 3099-3108, 1973).

[3] = target: T2, vanilloid receptor 1 (VR1/TRPV1) of the rat species (Rattus norvegicus, UniProt O35433); assay: FLIPR Ca2+ influx assay on rat dorsal root ganglia cells, capsaicin stimulus (Pharmacological method I); type: cell-based; settings: Ki by Cheng-Prusoff
T2 construct: The spinal column is removed from decapitated rats; endogenous in cells; host or cells: primary cells dissociated from rat dorsal root ganglia, cultured 2-3 days with NGF
T2 sequence (O35433 whole entry): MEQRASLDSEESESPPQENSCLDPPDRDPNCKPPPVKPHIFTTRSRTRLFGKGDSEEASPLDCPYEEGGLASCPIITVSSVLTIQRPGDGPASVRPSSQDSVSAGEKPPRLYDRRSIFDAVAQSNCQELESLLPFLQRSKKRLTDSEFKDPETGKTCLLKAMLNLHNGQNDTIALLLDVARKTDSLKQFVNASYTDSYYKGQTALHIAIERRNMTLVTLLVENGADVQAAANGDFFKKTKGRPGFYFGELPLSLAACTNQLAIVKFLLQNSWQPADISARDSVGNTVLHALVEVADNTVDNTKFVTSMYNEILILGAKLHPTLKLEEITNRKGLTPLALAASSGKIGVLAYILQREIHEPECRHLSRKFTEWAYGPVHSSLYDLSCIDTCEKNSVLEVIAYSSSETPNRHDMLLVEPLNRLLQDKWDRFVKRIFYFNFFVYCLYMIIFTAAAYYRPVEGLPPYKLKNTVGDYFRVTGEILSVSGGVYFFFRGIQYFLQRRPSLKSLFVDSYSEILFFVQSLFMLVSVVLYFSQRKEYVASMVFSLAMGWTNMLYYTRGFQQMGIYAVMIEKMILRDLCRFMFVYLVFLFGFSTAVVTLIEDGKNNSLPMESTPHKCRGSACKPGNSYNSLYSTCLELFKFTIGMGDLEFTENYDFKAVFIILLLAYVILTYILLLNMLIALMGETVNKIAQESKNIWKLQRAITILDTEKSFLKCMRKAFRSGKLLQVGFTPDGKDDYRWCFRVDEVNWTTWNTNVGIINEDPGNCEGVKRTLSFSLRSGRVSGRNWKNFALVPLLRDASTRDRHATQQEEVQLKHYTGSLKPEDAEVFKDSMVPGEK
Text: I. Functional Investigation on Vanilloid Receptor 1 (VR1/TRPV1 Receptor)
The agonistic or antagonistic action of the substances to be investigated on the vanilloid receptor 1 (VR1/TRPV1) of the rat species may be determined with the following assay. According to this assay, the influx of Ca^2+ through the receptor channel is quantified with the assistance of a Ca^2+-sensitive dye (type Fluo-4, Molecular Probes Europe BV, Leiden, Netherlands) in a Fluorescent Imaging Plate Reader (FLIPR, Molecular Devices, Sunnyvale, USA).
Complete medium: 50 mL HAMS F12 Nutrient Mixture (Gibco Invitrogen GmbH, Karlsruhe, Germany) with 10 vol. % FCS (foetal calf serum, Gibco Invitrogen GmbH, Karlsruhe, Germany, heat-inactivated); 2 mM L-glutamine (Sigma, Munich, Germany); 1 wt. % AA solution (antibiotic/antimycotic solution, PAA, Pasching, Austria) and 25 ng/ml NGF medium (2.5 S, Gibco Invitrogen GmbH, Karlsruhe, Germany)
Cell culture plate: poly-D-lysine-coated, black 96-hole plates with clear base (96 well black/clear plate, BD Biosciences, Heidelberg, Germany) are additionally coated with laminin (Gibco Invitrogen GmbH, Karlsruhe, Germany), by diluting laminin to a concentration of 100 μg/mL with PBS (Ca—Mg-free PBS, Gibco Invitrogen GmbH, Karlsruhe, Germany). Aliquots with a concentration of 100 μg/mL of laminin are taken and stored at −20° C. The aliquots are diluted with PBS in the ratio of 1:10 to 10 μg/mL of laminin and 50 μL of the solution is pipetted into each well of the cell culture plate. The cell culture plates are incubated for at least two hours at 37° C., the supernatant solution is aspirated and the wells are each washed twice with PBS. […]
The spinal column is removed from decapitated rats and this is placed directly in cold HBSS buffer (Hank's buffered saline solution, Gibco Invitrogen GmbH, Karlsruhe, Germany), i.e. located in an ice bath, combined with 1 vol. % (percent by volume) of an AA solution (antibiotic/antimycotic solution, PAA, Pasching, Austria). […] The resultant pellet is in each case redissolved in 250 μL of complete medium and the cell count is determined. […]

[4] = system: male mice (NMRI); assay: Formaldehyde test in mice; type: in vivo; settings: 0.3 per os (dose unit not given), second phase
Experimental: III. b. Formaldehyde Test in Mice
The investigation for determining the antinociceptive action of the compounds according to the invention is performed using the formaldehyde test on male mice (NMRI, 20 to 30 g body weight, Iffa, Credo, Belgium).
In the formaldehyde test, according to D. Dubuisson et al., Pain 1977, 4, 161-174 a distinction is drawn between the first (early) phase (0 to 15 minutes after the formaldehyde injection) and the second (late) phase (15 to 60 minutes after the formaldehyde injection). […]
Then, the nociceptive behaviour of the animals is observed and recorded continuously for an investigation period of three minutes in the second (late) phase of the formaldehyde test (21 to 24 minutes after the formaldehyde injection). Quantification of the pain behaviour proceeds by summation of the seconds in which the animals licked and bit the relevant paw during the investigation period.
The comparison is made in each case with control animals, which, instead of compounds according to the invention, received vehicle (0.9% aqueous sodium chloride soln.) before administration of the formaldehyde. On the basis of the quantification of the pain behaviour, the substance effect in the formaldehyde test is determined in percent as a change compared with the corresponding control. […]

VR1/TRPV1 receptor, sequence (Q8NER1 whole entry): as the sequence (Q8NER1 whole entry) above

Row | Compound | IC50 (Human) following pH-stimulus [1] | Ki [2] [nM] | Ki [3] [nM] | Inhibition Formaldehyde test [4]
1 | CCCCOc1nc(C(C)(C)C)ccc1CNC(=O)C(C)c1ccc2[nH]cnc2c1 (stereo not drawn) [Example 23, 2-(1H-benzoimidazol-5-yl)-N-(2-butoxy-6-tert.-butyl-pyridin-3-ylmethyl)-propionamide] | Ne | 15.3 |  | 0.3 per os 13%
2 | CC1CCN(c2nc(C(F)(F)F)ccc2CNC(=O)C(C)c2ccc3[nH]cnc3c2)CC1 (stereo not drawn) [Example 13, 2-(1H-benzoimidazol-5-yl)-N-(4-methyl-6′-trifluoromethyl-3,4,5,6-tetrahydro-2H-[1,2′]bipyridinyl-3′-ylmethyl)-propionamide] | Ne | 7 |  | 0.3 per os 25%

Continued by falling Ki [2], values first:

Row | IC50 (Human) following pH-stimulus [1] | Ki [2] [nM] | Ki [3] [nM] | Compound | Inhibition Formaldehyde test [4]
3 | ne | 27.8 | 60 | CC1CCN(c2nc(C(F)(F)F)ccc2CNC(=O)Cc2ccc3c(c2)OCCO3)CC1 [Example 58, 2-(2,3-dihydrobenzo[b][1,4]dioxin-6-yl)-N-((2-(4-methylpiperidin-1-yl)-6-(trifluoromethyl)pyridin-3-yl)methyl)acetamide] | 
4 | ne | 26 | 45.8 | CC1CCN(c2nc(C(F)(F)F)ccc2CNC(=O)C(C)c2ccc3c(c2)OCO3)CC1 (stereo not drawn) [Example 60, 2-(benzo[d][1,3]dioxol-5-yl)-N-((2-(4-methylpiperidin-1-yl)-6-(trifluoromethyl)pyridin-3-yl)methyl)propanamide] | 
5 | ne | 3.5 | 5.7 | O=C(Cc1ccc2c(c1)OCCO2)NCc1ccc(C(F)(F)F)nc1SC1CCCCC1 [Example 59, N-((2-(cyclohexylthio)-6-(trifluoromethyl)pyridin-3-yl)methyl)-2-(2,3-dihydrobenzo[b][1,4]dioxin-6-yl)acetamide] | 
